Like-named read-outs stand apart in the source and are kept apart here.
Legend:
Assay type in all cases: cell-based
RS4;11-BCL-2 F104L cells = assay: Cell proliferation assay (MTS), RS4;11-BCL-2 F104L engineered cells; conditions: 120 h, read-out: RS4, 11 BCL2-F104L IC50
Text: MTS testing kit was purchased from Promega (Madison, WI, USA). The RPMI-1640, Fetal bovine serum and Penicillin-Streptomycin were purchased from BI (Biological Industries, Beit Haemek, Israel). Puromycin was purchased from Beyotime (shanghai, China). Dimethyl sulfoxide (DMSO) was purchased from Sigma (St. Louis., MO, USA). RS4;11-BCL-2 G101V (Cobioer Lot. #: CBD2021063013P4), RS4;11-BCL-2 D103E (Cobioer Lot. #: CBD2021063013P4), RS4;11-BCL-2 D103Y (Cobioer Lot. #: CBD2022012101P4) and RS4;11-BCL-2 F104L (Cobioer Lot. #: CBD2021063014P4) cells were cultured in RPMI1640 supplemented with 1 ug/mL puromycin, 100 U/mL Penicillin-Streptomycin and 10% FBS.
To investigate whether a compound is able to inhibit the activity of BCL-2 mutation in cells, a mechanism-based assay using engineered cell lines stably overexpressing BCL-2 mutation (RS4;11-BCL-2 G101V, RS4;11-BCL-2 D103E, RS4;11-BCL-2 D103Y, and RS4;11-BCL-2 F104L) was developed. In this assay, the inhibition of BCL-2 mutation was reflected by the inhibition of cell proliferation of engineered RS4;11 cells. Cells were plated into 96-well plates at optimized cell density (RS4;11-BCL-2 G101V: 5000 cells/well; RS4;11-BCL-2 D103E: 7500 cells/well; RS4;11-BCL-2 D103Y: 7500 cells/well; RS4;11-BCL-2 F104L: 5000 cells/well). Plates were incubated at 37° C., with 5% CO2 for 4 h (RS4;11-BCL-2 G101V, RS4;11-BCL-2 F104L) and 24 h (RS4;11-BCL-2 D103E, RS4;11-BCL-2 D103Y), respectively. Compounds were serially diluted and added to the plates with the final concentrations of 10000, 3333.3, 1111.1, 370.4, 123.5, 41.2, 13.7, 4.6 and 1.5 nM. Plates were incubated at 37° C., with 5% CO2 for 120 h (RS4; 11-BCL-2 G101V, RS4; 11-BCL-2 F104L) and 72 h (RS4;11-BCL-2 D103E, RS4;11-BCL-2 D103Y), respectively. 20 μl MTS was added into each well and the plates were incubated at 37° C., with 5% CO2 exactly for 2 h. The absorbance was measured by a microplate reader at 490 nm. IC50 values were calculated using GraphPad Prism 8.0 software.

Toledo cells = assay: Cell proliferation assay (MTS), Toledo cells; conditions: 72 h
Outline: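 Toledo cells (RPMI-1640, 10% FBS) seeded at 30000 cells/well, rested 4 h, then exposed 72 h at 37 °C, 5% CO2 to compound at nine final concentrations, 1.5–10000 nM. Viability by MTS (2 h), absorbance at 490 nm. IC50 from the concentration-response.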

RS4;11-BCL-2 G101V cells = assay: Cell proliferation assay (MTS), RS4;11-BCL-2 G101V engineered cells; conditions: 120 h, read-out: RS4, 11 BCL2-G101V IC50
Outline: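 Proliferation IC50 in RS4;11 lines engineered with BCL-2 mutations, measured by MTS at 490 nm after 72 h (D103E, D103Y) or 120 h (G101V, F104L) compound treatment at 37 °C.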

Measured: IC50

COc1nc2[nH]cc(F)c2cc1Oc1cc(N2CCC3(CC2)CC(N2CCOC[C@H]2c2ccccc2C(C)C)C3)ccc1C(=O)NS(=O)(=O)c1cnc(NC[C@H]2CC[C@](C)(O)CC2)c([N+](=O)[O-])c1 [Example 87, 2-((3-fluoro-6-methoxy-1H-pyrrolo[2,3-b]pyridin-5-yl)oxy)-N-((6-((((1r,4r)-4-hydroxy-4-methylcyclohexyl)methyl)amino)-5-nitropyridin-3-yl)sulfonyl)-4-(2-((R)-3-(2-isopropylphenyl)morpholino)-7-azaspiro[3.5]nonan-7-yl)benzamide]
1 nM: RS4;11-BCL-2 F104L cells; Homo sapiens | Toledo cells; Homo sapiens | RS4;11-BCL-2 G101V cells; Homo sapiens

CC(C)c1ccccc1[C@@H]1CN(Cc2ccc(Cl)cc2)CCN1C1CC2(CCN(c3ccc(C(=O)NS(=O)(=O)c4cnc(NCC5CCC(C)(O)CC5)c([N+](=O)[O-])c4)c(Oc4cnc5[nH]cc(F)c5c4)c3)CC2)C1 (stereo partly drawn) [Example 229, 4-(2-((R)-4-(4-chlorobenzyl)-2-(2-isopropylphenyl)piperazin-1-yl)-7-azaspiro[3.5]nonan-7-yl)-2-((3-fluoro-1H-pyrrolo[2,3-b]pyridin-5-yl)oxy)-N-((6-((((1r,4r)-4-hydroxy-4-methylcyclohexyl)methyl)amino)-5-nitropyridin-3-yl)sulfonyl)benzamide]
1 nM: RS4;11-BCL-2 F104L cells | Toledo cells | RS4;11-BCL-2 G101V cells

CC(C)c1ccccc1[C@@H]1CN(Cc2ccc(F)cc2)CCN1C1CC2(CCN(c3ccc(C(=O)NS(=O)(=O)c4cnc(NC[C@H]5CC[C@](C)(O)CC5)c([N+](=O)[O-])c4)c(Oc4cnc5[nH]cc(F)c5c4)c3)CC2)C1 [Example 232, 2-((3-fluoro-1H-pyrrolo[2,3-b]pyridin-5-yl)oxy)-4-(2-((R)-4-(4-fluorobenzyl)-2-(2-isopropylphenyl)piperazin-1-yl)-7-azaspiro[3.5]nonan-7-yl)-N-((6-((((1r,4r)-4-hydroxy-4-methylcyclohexyl)methyl)amino)-5-nitropyridin-3-yl)sulfonyl)benzamide]
1 nM: RS4;11-BCL-2 F104L cells; Homo sapiens | Toledo cells; Homo sapiens | RS4;11-BCL-2 G101V cells; Homo sapiens

COc1nc2[nH]cc(F)c2cc1Oc1cc(N2CCC3(CC2)CC(N2CCN(Cc4ccc5c(c4)OCO5)C[C@H]2c2ccccc2C(C)C)C3)ccc1C(=O)NS(=O)(=O)c1cnc(NC[C@H]2CC[C@](C)(O)CC2)c([N+](=O)[O-])c1 [Example 353, 4-(2-((R)-4-(benzo[d][1,3]dioxol-5-ylmethyl)-2-(2-isopropylphenyl)piperazin-1-yl)-7-azaspiro [3.5]nonan-7-yl)-2-((3-fluoro-6-methoxy-1H-pyrrolo[2,3-b]pyridin-5-yl)oxy)-N-((6-((((1r,4r)-4-hydroxy-4-methylcyclohexyl)methyl)amino)-5-nitropyridin-3-yl)sulfonyl)benzamide]
1 nM: RS4;11-BCL-2 F104L cells; Homo sapiens | Toledo cells; Homo sapiens | RS4;11-BCL-2 G101V cells; Homo sapiens

CC(C)c1ccccc1[C@@H]1CN(Cc2ccc3c(c2)OCO3)CCN1C1CC2(CCN(c3ccc(C(=O)NS(=O)(=O)c4cnc(NC[C@H]5CC[C@](C)(O)CC5)c([N+](=O)[O-])c4)c(Oc4cnc5[nH]cc(F)c5c4)c3)CC2)C1 [Example 354, 4-(2-((R)-4-(benzo[d][1,3]dioxol-5-ylmethyl)-2-(2-isopropylphenyl)piperazin-1-yl)-7-azaspiro[3.5]nonan-7-yl)-2-((3-fluoro-1H-pyrrolo[2,3-b]pyridin-5-yl)oxy)-N-((6-((((1r,4r)-4-hydroxy-4-methylcyclohexyl)methyl)amino)-5-nitropyridin-3-yl)sulfonyl)benzamide]
1 nM: RS4;11-BCL-2 F104L cells; Homo sapiens | Toledo cells; Homo sapiens | RS4;11-BCL-2 G101V cells; Homo sapiens

Source: US20250122191A1, “COMPOUNDS AS BCL-2 INHIBITORS” (Fochon Biosciences, Ltd, priority 2021, published 2025)
